# What was measured:
# [1] = Assay B: Microsomal clearance; assay type: in vitro ADME, human; details: pooled liver microsomes 1 mg/ml, test compound 1 μM, 37° C., NADPH; clearance as % of hepatic blood flow
# Protocol: Assay B: Microsomal Clearance:
# The metabolic degradation of the test compound is assayed at 37° C. with pooled liver microsomes. The final incubation volume of 100 μl per time point contains TRIS buffer pH 7.6 at RT (0.1 M), magnesium chloride (5 mM), microsomal protein (1 mg/ml) and the test compound at a final concentration of 1 μM.
# Following a short preincubation period at 37° C., the reactions are initiated by addition of beta-nicotinamide adenine dinucleotide phosphate, reduced form (NADPH, 1 mM) and terminated by transferring an aliquot into solvent after different time points (0, 5, 15, 30, 60 min). Additionally, the NADPH-independent degradation is monitored in incubations without NADPH, terminated at the last time point. The [%] remaining test compound after NADPH independent incubation is reflected by the parameter c (control) (metabolic stability). The quenched incubations are pelleted by centrifugation (10000 g, 5 min).
# An aliquot of the supernatant is assayed by LC-MS/MS for the amount of parent compound. The half-life (t½ INVITRO) is determined by the slope of the semilogarithmic plot of the concentration-time profile.
# The intrinsic clearance (CL_[…]) is calculated by considering the amount of protein in the incubation: CL_[…] [μl/min/mg protein]=(Ln 2/(half-life [min]*protein content [mg/ml]))*1000 CL_[…]_INVIVO [ml/min/kg]=(CL_[…] [μL/min/mg protein]×MPPGL [mg protein/g liver]×liver factor [g/kg bodyweight])/1000 Qh [%]=CL [ml/min/kg]/hepatic blood flow [ml/min/kg])
# (§1) Hepatocellularity, human: 120×10e6 cells/g liver
# (§2) Liver factor, human: 25.7 g/kg bodyweight
# (§3) Blood flow, human: 21 ml/(min×kg)
# human TRPA1 ion channel = biological target: T1, human TRPA1 ion channel (Homo sapiens, UniProt O75762); assay: Assay A: TRPA1 assay (FLIPRtetra, AITC-induced intracellular calcium); assay type: cell-based; details: HEK293 cell line over-expressing human TRPA1, AITC agonism (final 10 μM), AUC of calcium signal, read-out: hTRPA1 IC50
# T1 construct: host or cells: HEK293
# Protocol: A human HEK293 cell line over-expressing the human TRPA1 ion channel (Perkin Elmer, Product No. AX-004-PCL) is used as a test system for compound efficacy and potency. Compound activity is determined by measuring the effect of compounds on intracellular calcium concentration induced by AITC (Allylisothiocyanat) agonism in a FLIPRtetra system (Molecular Devices).
# The cells are obtained as frozen cells in cryo-vials and stored until use at −150° C.
# Cells are grown in culture medium (MEM/EBSS medium with 10% FCS and 0.4 mg/ML Geneticin). […] For sub-culturing cells are detached from flasks by Versene. At the day before the assay, cells are detached, washed twice with medium (MEM/EBSS medium with 10% FCS) and 20000 cells in 20 μl/well are seeded to Poly D-Lysin biocoated 384-well plates (black, clear bottom, Cat. 356697) from Corning. Plates are incubated for 24 hours at 37° C./5% C02 before use in the assay.
# The test compounds are dissolved in 100% DMSO at a concentration of 10 mM and in a first step diluted in DMSO to a concentration of 5 mM, followed by serial dilution steps in 100% DMSO. Dilution factor and number of dilution steps may vary according to needs. Typically 8 different concentrations by 1:5 dilutions are prepared, further intermediate dilutions (1:20) of the substances are carried out with HBSS/HEPES buffer (1×HEPES, Cat. 14065 from Gibco, 20 mM HEPES, Cat. 83264 from SIGMA, 0.1% BSA Cat. 11926 from Invitrogen, pH 7.4
# At the assay day cells are washed 3× with assay puffer, 20 μL buffer remaining in the wells after washing. 10 μL Ca6 kit (Cat. R8191 Molecular Devices) loading buffer in HBSS/HEPES is added to the cells and the plates are incubated with lid for 120 minutes at 37°/5% CO2. 10 μL of compound or controls in HBSS/HEPES buffer/5% DMSO from the intermediate dilution plate are carefully added to the wells. […] Finally 10 μL of the agonist AITC 50 μM dissolved in HBSS/HEPES buffer/0.05% DMSO (final concentration 10 μM) is added to the wells followed by an additional read on the FLIPRtetra device for 10 minutes. The area under the signal curve (AUC) after AITC addition is used for IC50/% inhibition calculations
# Data Evaluation and Calculation:
# Each assay microtiter plate contains wells with vehicle (1% DMSO) controls instead of compound as controls for AITC induced luminescence (100% CTL; high controls) and is wells with vehicle controls without AITC as controls for non-specific changes in luminescence (0% CTL; low controls).
# The analysis of the data is performed by the calculation of the area under signal curve of the individual wells. Based on this values the % value for the measurement of each substance concentration is calculated (AUC(sample)−AUC(low))*100/(AUC(high)−AUC(low)) using MegaLab software (in house development). The IC50 values are calculated from the % control values using MegaLab software. Calculation: [y=(ad)/(1+(x/c)^b)+d], a=low value, d=high value; x=conc M; c=IC50 M; b=hill; y=% ctrl
# [2] = Assay C: Hepatocyte clearance; assay type: in vitro ADME, human; details: cryopreserved hepatocyte suspension, test compound 1 μM, up to 6 h; predicted clearance as % of hepatic blood flow
# Protocol: Assay C: Hepatocyte Clearance
# The metabolic degradation of the test compound is assayed in a hepatocyte suspension. Hepatocytes (cryopreserved) are incubated in Dulbecco's modified eagle medium (supplemented with 3.5 μg glucagon/500 mL, 2.5 mg insulin/500 mL and 3.75 mg/500 mL hydrocortison) containing 5% or 50% species serum.
# The cells are incubated for six hours (incubator, orbital shaker) and samples (25 μl) are taken at 0, 0.5, 1, 2, 4 and 6 hours. Samples are transferred into acetonitrile and pelleted by centrifugation (5 min). The supernatant is transferred to a new 96-deepwell plate, evaporated under nitrogen and resuspended.
# Decline of parent compound is analyzed by HPLC-MS/MS
# CLint is calculated as follows CL_[…]=Dose/AUC=(CO/CD)/(AUD+clast/k)×1000/60. CO: initial concentration in the incubation [P M], CD: cell density of vital cells [10e6 cells/mL], AUD: area under the data [μM×h], clast: concentration of last data point [μM], k: slope of the regression line for parent decline [h−1].
# The calculated in vitro hepatic intrinsic clearance can be scaled up to the intrinsic in vivo hepatic Clearance and used to predict hepatic in vivo blood clearance (CL) by the use of a liver model (well stirred model). CL_[…]_INVIVO [ml/min/kg]=(CL_[…] [μL/min/10e6 cells]×hepatocellularity [10e6 cells/g liver]×liver factor [g/kg bodyweight])/1000 CL [ml/min/kg]=CL_[…]_INVIVO [ml/min/kg]×hepatic blood flow [ml/min/kg]/(CL_[…]_INVIVO [ml/min/kg]+hepatic blood flow [ml/min/kg]) Qh [%]=CL [ml/min/kg]/hepatic blood flow [ml/min/kg])
# as §1, §2, §3
# T1 sequence (O75762 whole entry): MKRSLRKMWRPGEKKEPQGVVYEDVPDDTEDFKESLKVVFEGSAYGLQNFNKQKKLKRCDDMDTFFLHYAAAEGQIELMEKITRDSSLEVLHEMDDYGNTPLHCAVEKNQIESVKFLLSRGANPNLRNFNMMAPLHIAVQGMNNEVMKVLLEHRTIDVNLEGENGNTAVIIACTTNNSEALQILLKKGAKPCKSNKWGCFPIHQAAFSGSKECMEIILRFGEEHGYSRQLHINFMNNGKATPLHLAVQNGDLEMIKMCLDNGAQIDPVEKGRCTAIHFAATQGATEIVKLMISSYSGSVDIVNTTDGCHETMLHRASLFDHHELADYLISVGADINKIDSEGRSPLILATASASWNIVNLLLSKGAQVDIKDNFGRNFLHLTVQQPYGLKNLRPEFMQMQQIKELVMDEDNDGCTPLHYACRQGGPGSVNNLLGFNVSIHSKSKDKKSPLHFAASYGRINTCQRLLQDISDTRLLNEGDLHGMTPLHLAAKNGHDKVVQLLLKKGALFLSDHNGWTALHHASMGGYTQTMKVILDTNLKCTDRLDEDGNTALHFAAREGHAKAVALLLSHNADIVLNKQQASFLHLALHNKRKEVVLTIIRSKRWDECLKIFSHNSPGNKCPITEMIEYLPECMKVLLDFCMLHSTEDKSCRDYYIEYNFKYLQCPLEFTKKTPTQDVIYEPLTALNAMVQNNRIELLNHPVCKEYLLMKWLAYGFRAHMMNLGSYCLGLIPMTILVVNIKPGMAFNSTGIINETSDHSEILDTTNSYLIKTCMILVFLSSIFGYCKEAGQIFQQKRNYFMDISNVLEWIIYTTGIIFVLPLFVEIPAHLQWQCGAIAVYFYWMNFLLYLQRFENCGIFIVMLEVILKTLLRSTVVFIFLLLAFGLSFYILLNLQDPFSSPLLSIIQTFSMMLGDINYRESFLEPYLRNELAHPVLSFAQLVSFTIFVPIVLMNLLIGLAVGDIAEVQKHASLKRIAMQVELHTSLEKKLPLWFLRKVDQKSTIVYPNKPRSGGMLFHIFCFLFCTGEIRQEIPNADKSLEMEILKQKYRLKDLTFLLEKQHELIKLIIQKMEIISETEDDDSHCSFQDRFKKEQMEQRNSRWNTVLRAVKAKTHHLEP
SMILES,human LM [% Qh] [1] [% Qh],IC50 (human TRPA1 ion channel) [nM],human Hepatocytes [% Qh] [2] [% Qh]
"CN1C(=O)COc2ncn(Cc3nnn(C[C@H](O)c4ccc(Cl)cc4)n3)c(=O)c21 [Example 1, 3-({2-[(2R)-2-(4-chlorophenyl)-2-hydroxyethyl]-2H-1,2,3,4-tetrazol-5-yl}methyl)-5-methyl-3H,4H,5H,6H,7H-pyrimido[4,5-b][1,4]oxazine-4,6-dione]",<23,53,7
CN1C(=O)COc2ncn(Cc3nnn(C[C@H](O)c4cc5ccc(F)cc5s4)n3)c(=O)c21 [Example 2],<23,15,16
CN1C(=O)COc2ncn(Cc3nnn(C[C@H](O)c4cc5ccccc5s4)n3)c(=O)c21 [Example 3],<23,23,18
CN1C(=O)COc2ncn(Cc3nnn(C[C@H](O)c4cc5cc(Cl)ccc5o4)n3)c(=O)c21 [Example 4],<23,32,31
CN1C(=O)COc2ncn(Cc3nnn(C[C@H](O)c4cc(Cl)c(Cl)s4)n3)c(=O)c21 [Example 5],<23,39,29
CN1C(=O)COc2ncn(Cc3nnn(C[C@H](O)c4cc5cc(F)ccc5o4)n3)c(=O)c21 [Example 6],<23,45,13
CN1C(=O)COc2ncn(Cc3nnn(C[C@H](O)c4cc5cc(F)c(F)cc5o4)n3)c(=O)c21 [Example 7],<23,60,21
CN1C(=O)COc2ncn(Cc3nnn(C[C@H](O)c4ccc(Br)cc4)n3)c(=O)c21 [Example 8],<23,62,11
Cc1ccc([C@@H](O)Cn2nnc(Cn3cnc4c(c3=O)N(C)C(=O)CO4)n2)cc1 [Example 9],<23,73,5
CN1C(=O)COc2ncn(Cc3nnn(C[C@H](O)c4ccc(Cl)s4)n3)c(=O)c21 [Example 10],<23,80,<4
CN1C(=O)COc2ncn(Cc3nnn(C[C@H](O)c4cc5cc(Cl)c(F)cc5o4)n3)c(=O)c21 [Example 11],34,81,29
CN1C(=O)COc2ncn(Cc3nnn(C[C@H](O)c4cc5ccccc5o4)n3)c(=O)c21 [Example 12],<23,115,8
CN1C(=O)COc2ncn(Cc3nnn(C[C@H](O)c4cc5ccc(F)cc5o4)n3)c(=O)c21 [Example 13],<23,145,10
CN1C(=O)COc2ncn(Cc3nnn(C[C@H](O)c4ccc5c(c4)OCO5)n3)c(=O)c21 [Example 14],<23,191,5
CN1C(=O)COc2ncn(Cc3nnn(C[C@H](O)c4cc5cc(F)c(Cl)cc5o4)n3)c(=O)c21 [Example 15],26,227,29
CN1C(=O)COc2ncn(Cc3nnn(C[C@H](O)c4ccc(C#N)s4)n3)c(=O)c21 [Example 16],<23,237,<4
COc1ccc([C@@H](O)Cn2nnc(Cn3cnc4c(c3=O)N(C)C(=O)CO4)n2)cc1 [Example 17],<23,248,13
CN1C(=O)COc2ncn(Cc3nnn(C[C@H](O)c4cc5cccc(F)c5o4)n3)c(=O)c21 [Example 18],<23,153,8
CN1C(=O)COc2ncn(Cc3nnn(C[C@H](O)c4ccc5cc(C#N)oc5c4)n3)c(=O)c21 [Example 19],<23,214,19
CN1C(=O)CCc2ncn(Cc3nnn(C[C@H](O)c4ccc(Cl)cc4)n3)c(=O)c21 [Example 20],<23,140,<4
CN1C(=O)CSc2ncn(Cc3nnn(C[C@H](O)c4ccc(Cl)cc4)n3)c(=O)c21 [Example 21],<23,155,6
CN1C(=O)C(F)(F)Oc2ncn(Cc3nnn(C[C@H](O)c4ccc(Cl)cc4)n3)c(=O)c21 [Example 22],35,74,12
C[C@H]1Oc2ncn(Cc3nnn(C[C@H](O)c4ccc(Cl)cc4)n3)c(=O)c2N(C)C1=O [Example 23],25,52,36
C[C@@H]1Oc2ncn(Cc3nnn(C[C@H](O)c4ccc(Cl)cc4)n3)c(=O)c2N(C)C1=O [Example 24],<23,100,16
